Entries after “also recorded” stand apart in the source; their conditions may differ. Read-outs that look alike come from different tables or passages of the source.
Key:
[1] = tested on: renal cell carcinoma (RCC); test: Clinical course of the case patient: toxicities, response, PFS; format: in vivo
Method: A person with smoking and epilepsy history was diagnosed from a stage pT3a renal carcinoma in December 2015. Radical right nephrectomy was performed in February 2016. In September 2018, a right lung segmentectomy was practiced due to lepidic adenocarcinoma growth. On February 2021 progression was detected with right adrenal massive bleeding, hilar adenopathy and left renal adrenal metastasis. Nivolumab was initiated as first-line treatment in May 2021 for intermediate-risk clear-cell RCC. […] In December 2021, new progression was detected and second-line treatment with cabozantinib 60 mg daily was started.
(§1) This finding was discussed within the multidisciplinary team, including the oncologist and the pharmacist, and a TDM plan was planned. Method used for analysis was ultra-high-performance liquid chromatography coupled to tandem mass spectrometry.
Everolimus dose was increased from 10 mg QD to 15 mg daily (administered 10 mg, 1 h before breakfast and 5 mg, 1 h before dinner). […] However, a second dose adjustment was needed, 10 mg BID, administered before meals. Two weeks and a month later, new TDM were planned and Cminss were 10.6 ng/ml and 8.7 ng/ml, respectively (Fig. 2). […] Unfortunately, everolimus treatment was stopped on July 2022, due to lung progression, pleural effusion, and respiratory insufficiency, and finally patient died.

CYP3A4 = tested on: CYP3A4; design: method as in lexicomp and drugs databases; settings: ref lexicomp and drugs databases; cited from earlier work
[2] = design: method as in earlier work; settings: single oral 10 mg dose, cited from earlier work
[3] = design: method as in PMID 25361989; settings: cited from earlier work
[4] = Therapeutic drug monitoring of everolimus in the case patient (UHPLC-MS/MS); format: in vivo; settings: human, plasma, oral, co-medication carbamazepine and phenytoin, read-out: Cminss
Excerpt: as §1

breast cancer = tested on: breast cancer; design: method as in PMID 36188563; settings: cited from earlier work
[5] = design: method as in product label; settings: ref product label, cited from earlier work
renal cancer [6] = tested on: renal cancer; design: method as in PMID 22209391; settings: cited from earlier work
[7] = design: method as in PMID 16187976; settings: single 2 mg dose everolimus with verapamil 80 mg three times daily, 16 healthy subjects; cited from earlier work
[8] = design: method as in PMID 15785960; settings: single 2-mg dose everolimus with erythromycin 500 mg TID for 9 days; cited from earlier work
renal cancer [9] = tested on: renal cancer; design: method as in PMID 27279544; settings: renal cancer patients, second or third-line therapy; cited from earlier work
[10] = design: method as in PMID 28762135; settings: 10 patients, cited from earlier work
[11] = design: method as in PMID 24332451; settings: cited from earlier work

COc1cc2nccc(Oc3ccc(NC(=O)C4(C(=O)Nc5ccc(F)cc5)CC4)cc3)c2cc1OC [cabozantinib]
adverse events ([1]; cabozantinib 60 mg daily second-line treatment, case patient): hypertension grade I; also recorded: nausea and diarrhea grade I

NC(=O)N1c2ccccc2C=Cc2ccccc21 [carbamazepine]
classification of effect on CYP3A4 metabolism (CYP3A4): strong inducers

CO[C@H]1C[C@@H]2CC[C@@H](C)[C@@](O)(O2)C(=O)C(=O)N2CCCC[C@H]2C(=O)O[C@H]([C@H](C)C[C@@H]2CC[C@@H](OCCO)[C@H](OC)C2)CC(=O)[C@H](C)/C=C(\C)[C@@H](O)[C@@H](OC)C(=O)[C@H](C)C[C@H](C)/C=C/C=C/C=C/1C [everolimus]
PFS ([1]; case patient, everolimus third line RCC): 3.7 months | toxicities ([1]; during everolimus treatment): no relevant toxicities were observed | response to treatment ([1]; during everolimus treatment, third line RCC): stable disease; also recorded: stabilization disease | toxicities ([1]; everolimus 10 mg QD, four weeks after starting treatment): no toxicities | toxicities ([1]; everolimus 15 mg daily, four weeks later): without relevant toxicities | reduction of AUC ([2]; high-fat meal vs fasting): 33% | reduction of Cmax ([2]; high-fat meal vs fasting): 54% | reduction of AUC ([2]; low-fat meal vs fasting): 22% | reduction of Cmax ([2]; low-fat meal vs fasting): 42% | plasma concentration ([3]; before fenofibrate): 10.1 ng/mL | plasma concentration ([3]; with fenofibrate): 4.2 ng/mL | concentration at 1 month ([4]; 10 mg BID, everolimus 10 mg BID, a month later): 8.7 ng/mL | concentration at 2 weeks ([4]; 10 mg BID, everolimus 10 mg BID, two weeks later): 10.6 ng/mL | concentration at 4 weeks ([4]; 10 mg QD, everolimus 10 mg QD fasted, four weeks after starting treatment): 3.7 ng/mL | concentration at 4 weeks ([4]; 15 mg daily (10 mg + 5 mg), everolimus 15 mg daily (10 mg + 5 mg), four weeks later): 6.4 ng/mL | median PFS (breast cancer; breast cancer patients): 13.7 months | median Cminss in patients with dose-limiting toxicities (breast cancer): 19 ng/mL | patients with Cminss below 10 ng/ml (breast cancer): 50% | time to peak concentration ([5]; oral): 1.3 to 1.8 h | time to steady state [5]: 7 to 14 days | median PFS (renal cancer [6]; renal cancer patients, comparison group before the drop (earlier line)): 5.4 months | median PFS (renal cancer [6]; third line, previously treated with two anti-VEGFR tyrosine kinase inhibitor): 4 months | increase of AUC [7]: 3.5 fold | increase of Cmax [7]: 2.3 fold | increase of AUC [8]: 4.4 fold | increase of Cmax [8]: 2.0 fold | median PFS (renal cancer [9]): 3.8 months | AUC ([10]; 5 mg twice daily): 436 ng·h/mL | maximum concentration (Cmax) ([10]; 5 mg twice daily): 40.3 ng/mL | minimum steady-state concentration (Cminss) ([10]; 5 mg twice daily): 13.7 ng/mL | AUC ([10]; 10 mg once daily): 435 ng·h/mL | maximum concentration (Cmax) ([10]; 10 mg once daily): 61.5 ng/mL | minimum steady-state concentration (Cminss) ([10]; 10 mg once daily): 9.6 ng/mL | mean Cminss ([11]; 945 patients, lung, renal and neuroendocrine tumors): 15.65 ng/mL | patients achieving optimal plasmatic concentrations (10-30 ng/ml) ([11]; lung cancer): 55.2% | patients achieving optimal plasmatic concentrations (10-30 ng/ml) ([11]; neuroendocrine tumors): 45% | patients achieving optimal plasmatic concentrations (10-30 ng/ml) ([11]; renal cancer): 62.9% | decrease of Cminss ([11]; with CYP3A4 inducers): 7% | increase of Cminss ([11]; with strong CYP3A4 inhibitors): 10%

O=C1NC(=O)C(c2ccccc2)(c2ccccc2)N1 [phenytoin]
classification of effect on CYP3A4 metabolism (CYP3A4): strong inducers

Nivolumab
adverse events ([1]; nivolumab first-line treatment, case patient): dry mouth, grade II anorexia and grade I astheny; also recorded: no immune-mediated toxicities
